In patent US5922677A, “Therapeutic method and compounds of use therein” (Auckland UniServices Limited, priority 1994, dated 1999):
Structures can show the parent of a compound that is named as a salt. No end group written: not given here.

Key:
[1] = system: osteoblast-like cells from fetal rat calvariae; assay: Numbers of osteoblast-like cells in culture; type: cell-based; conditions: for effect on cell number (osteoblast proliferation): growth-arrested cultures, 24 hours
Excerpt: Cells were either (a) growth-arrested as a result of being cultured in the presence of 0.1% bovine serum albumin or (b) were actively growing in culture medium containing 2% fetal calf serum. n=6 in each group. Data are mean ± sem. Statistical significance (by Student's test) of differences from control: *p≤0.05; **p<0.005; ***p<0.001.

[2] = system: osteoblast-like cells from fetal rat calvariae; assay: Numbers of osteoblast-like cells in culture; type: cell-based; conditions: for Osteoblast Numbers after 24 h culture: mean ± SD
calvariae of adult mice = assay: In vivo calvarial study, local injection over hemicalvaria, histomorphometry; conditions: 4.1×10^-9 mol daily for 5 days over right hemicalvaria
Excerpt: FIG. 4 Comparison of the in vivo effects of rat amylin, rat calcitonin (CT) and rat CGRP in adult mice. The daily dose of each peptide was 4.1×10^-9 mol. Data are expressed as the ratio of each index measured in the injected hemicalvaria to that measured in the contralateral, uninjected hemicalvaria. n=5 in each group. Data are mean ± sem. Significant differences (p<0.05) between the injected and uninjected hemicalvariae are indicated by asterisks.
The effects of the peptides on bone histology in vivo were assessed by subcutaneously injecting the peptide daily for 5 days over the periosteum of the right hemicalvaria of adult, male Swiss-Webster mice. The animals were sacrificed 1 week following the last injection. Non-decalcified sections of the calvariae were prepared as described previously, Cornish, J., Callon, K., King, A., Edgar, S., and Reid, I. R. (1993) Endocrinology 132, 1359-1366. Quantitative histomorphometry was performed by an operator blinded to the treatment each animal had received. Data are expressed as the ratio of each index measured in the injected hemicalvaria to that measured in the contralateral, uninjected hemicalvaria of the same animal and have been evaluated by paired t tests.

[3] = system: osteoblast-like cells from fetal rat calvariae; assay: Thymidine incorporation into osteoblast-like cells; type: cell-based; conditions: time-course (FIG. 3), medium with 0.1% bovine serum albumin
Experimental: FIG. 3 The effect of rat amylin on thymidine incorporation into osteoblast-like cells from fetal rat calvariae. Statistical significance of differences from control at each time-point: *p=0.002; **p<0.001. In both experiments the culture medium contained 0.1% bovine serum albumin. n=6 in each group. Data are mean ± sem.
Osteoblast-like cells were prepared by sequential collagenase digestion of calvariae from 20 day fetal rats, as described previously, Lowe, C., Cornish, J., Callon, K, Martin, T. J., and Reid, I. R. (1991) J. Bone Miner. Res. 6, 1277-1283.

mouse calvaria = assay: Systemic in vivo experiment, calvarial histomorphometry; set-up: species or system mice
Experimental: We have also conducted the following systemic in vivo experiment where amylin at a concentration of 10^-8 M is injected subcutaneously.
Calvarial Histomorphometry
11 mice in each treatment group.
Differences between control and amylin groups were statistically tested using an unpaired Student t test.
Measurements are recorded per mm calvarial length.

[4] = injected vs uninjected hemicalvaria
[5] = systemic test, summary in words

Compound: O=C(O)C(F)(F)F [TFA, trifluoroacetic acid]
- cell numbers ([1]; 4×10^-8 M, exposed for 24 hrs, control 5.6±0.3×10^4): 4.2±0.3×10^4

Compound: Amylin, TFA Salt: amylin as trifluoroacetic acid salt, generally the tetra-TFA salt, as isolated by HPLC (KCNTATCATQRLANFLVHSSNNFGAILSSTNVGSNTY; not fully specified (C-terminus, bridges); cysteine pairing not given here; also: trifluoroacetate salt; UniProt P10997 34-70, looked up)
- Osteoblast Numbers after 24 h culture ([2]; 10^-8 M, control 4.6 ± 0.64): 5.6 ± 0.96 10^4 cells/well

Compound: Amylin, chloride salt: amylin salt prepared by dissolving peptide in 3 mM hydrochloric acid and freeze-drying (KCNTATCATQRLANFLVHSSNNFGAILSSTNVGSNTY; not fully specified (C-terminus, bridges); cysteine pairing not given here; also: chloride salt; UniProt P10997 34-70, looked up)
- Osteoblast Numbers after 24 h culture ([2]; 10^-8 M, control 4.6 ± 0.64): 7.9 ± 1.00 10^4 cells/well

Compound: CGRP: rat calcitonin gene-related peptide-1, a peptide related to amylin (SCNTATCVTHRLAGLLSRSGGVVKDNFVPTNVGSEAF; not fully specified (C-terminus, bridges); cysteine pairing not given here; UniProt P01256 83-119, looked up)
- effect on cell number (osteoblast proliferation) ([1]; dose-response (FIG. 1a)): increased osteoblast proliferation, but the effect was smaller and only significant at 10^-8 M

Compound: Rat calcitonin: rat calcitonin peptide, comparator (CGNLSTCMLGTYTQDLNKFHTFPQTSIGVGAP; ends and bridges not checked; cysteine pairing not given here; UniProt P01257 85-116, looked up) [reference compound]
- effect on cell number (osteoblast proliferation) ([1]; 10^-9 -10^-7 M): without effect
- eroded surface (calvariae of adult mice): reduced eroded surface to a similar extent to amylin
- mineralized bone area increase (calvariae of adult mice; non-significant): 4%

Compound: amylin: 37-amino acid peptide cosecreted with insulin from pancreatic beta cells; species not printed at place (rat amylin per FIG. 1-4 legends)
- stimulation of osteoblast proliferation ([1]; actively growing cells (2% fetal calf serum, FIG. 1b)): also observed in actively growing cells
- effect on cell number (osteoblast proliferation) ([1]; dose-response (FIG. 1a)): substantial, dose-related increase in cell number
- DNA synthesis assessed by thymidine incorporation [3]: sustained increase in DNA synthesis
- bone resorption (calvariae of adult mice; [4]): decreases in bone resorption of comparable magnitude
- indices of bone formation (calvariae of adult mice; [4]): two- to three-fold increases
- indices of bone formation compared to control (mouse calvaria; [5]): significant increases in all indices of bone formation
- indices of bone resorption compared to control (mouse calvaria; [5]): significant decreases in indices of bone resorption
- osteoid area (mouse calvaria; systemic, subcutaneous, 10^-8 M, mean, per mm calvarial length, control 0.0005): 0.0018 mm^2
- osteoclast surface (mouse calvaria; systemic, subcutaneous, 10^-8 M, mean, per mm calvarial length, control 0.094): 0.019 mm
- eroded surface (mouse calvaria; systemic, subcutaneous, 10^-8 M, mean, per mm calvarial length, control 0.294): 0.081 mm
- osteoblast surface (mouse calvaria; systemic, subcutaneous, 10^-8 M, mean, per mm calvarial length, control 0.85): 1.76 mm
- osteoclast number (mouse calvaria; systemic, subcutaneous, 10^-8 M, mean, per mm calvarial length, control 3.6): 1.2
- osteoblast number (mouse calvaria; systemic, subcutaneous, 10^-8 M, mean, per mm calvarial length, control 73.6): 147.5
- cell number over time ([2]; time-course 6 to 48 hours (FIG. 2)): increased in amylin-treated cells from 6 to 48 hours

Compound: parathyroid hormone
- reduced cell numbers ([1]; 10^-8 M, at 24 hours): 18%

Compound: rat amylin: rat form of the 37-amino acid peptide amylin (KCNTATCATQRLANFLVRSSNNLGPVLPPTNVGSNTY; not fully specified (C-terminus, bridges); cysteine pairing not given here; UniProt P12969 38-74, looked up)
- Osteoblast Numbers after 24 h culture ([2]; 10^-9 M, control 4.2 ± 0.6): 5.9 ± 0.8 x10^4 cells/well

Compound: salmon calcitonin
- effect on cell number (osteoblast proliferation) ([1]; 10^-7 M): without effect
